BigSolDB 2.1

Nc1ccnc(=O)[nH]1
solubility (mole fraction) (in DMSO, 293.15 K): 0.00997
solubility (mole fraction) (in DMSO, 298.15 K): 0.0105
solubility (mole fraction) (in DMSO, 303.15 K): 0.0111
solubility (mole fraction) (in DMSO, 308.15 K): 0.012
solubility (mole fraction) (in DMSO, 313.15 K): 0.0129
solubility (mole fraction) (in DMSO, 318.15 K): 0.0136
solubility (mole fraction) (in DMSO, 323.15 K): 0.0145
solubility (mole fraction) (in DMSO, 328.15 K): 0.0155
solubility (mole fraction) (in ethanol, 288.15 K): 0.000339
solubility (mole fraction) (in ethanol, 293.15 K): 0.000348
solubility (mole fraction) (in ethanol, 298.15 K): 0.000372
solubility (mole fraction) (in ethanol, 303.15 K): 0.000423
solubility (mole fraction) (in ethanol, 308.15 K): 0.000451
solubility (mole fraction) (in ethanol, 313.15 K): 0.000497
solubility (mole fraction) (in ethanol, 318.15 K): 0.000523
solubility (mole fraction) (in ethanol, 323.15 K): 0.000609
solubility (mole fraction) (in ethanol, 328.15 K): 0.000692
solubility (mole fraction) (in isobutanol, 288.15 K): 0.000144
solubility (mole fraction) (in isobutanol, 293.15 K): 0.000162
solubility (mole fraction) (in isobutanol, 298.15 K): 0.000175
solubility (mole fraction) (in isobutanol, 303.15 K): 0.0002
solubility (mole fraction) (in isobutanol, 308.15 K): 0.000224
solubility (mole fraction) (in isobutanol, 313.15 K): 0.000268
solubility (mole fraction) (in isobutanol, 318.15 K): 0.000309
solubility (mole fraction) (in isobutanol, 323.15 K): 0.00035
solubility (mole fraction) (in isobutanol, 328.15 K): 0.000394
solubility (mole fraction) (in isopentanol, 288.15 K): 0.000201
solubility (mole fraction) (in isopentanol, 293.15 K): 0.000221
solubility (mole fraction) (in isopentanol, 298.15 K): 0.000253
solubility (mole fraction) (in isopentanol, 303.15 K): 0.000278
solubility (mole fraction) (in isopentanol, 308.15 K): 0.000308
solubility (mole fraction) (in isopentanol, 313.15 K): 0.000344
solubility (mole fraction) (in isopentanol, 318.15 K): 0.000374
solubility (mole fraction) (in isopentanol, 323.15 K): 0.000415
solubility (mole fraction) (in isopentanol, 328.15 K): 0.000483
solubility (mole fraction) (in isopropanol, 288.15 K): 0.000159
solubility (mole fraction) (in isopropanol, 293.15 K): 0.000175
solubility (mole fraction) (in isopropanol, 298.15 K): 0.000187
solubility (mole fraction) (in isopropanol, 303.15 K): 0.000205
solubility (mole fraction) (in isopropanol, 308.15 K): 0.00024
solubility (mole fraction) (in isopropanol, 313.15 K): 0.000283
solubility (mole fraction) (in isopropanol, 318.15 K): 0.000316
solubility (mole fraction) (in isopropanol, 323.15 K): 0.000358
solubility (mole fraction) (in isopropanol, 328.15 K): 0.000412
solubility (mole fraction) (in methanol, 288.15 K): 0.000721
solubility (mole fraction) (in methanol, 293.15 K): 0.000808
solubility (mole fraction) (in methanol, 298.15 K): 0.000897
solubility (mole fraction) (in methanol, 303.15 K): 0.000999
solubility (mole fraction) (in methanol, 308.15 K): 0.00112
solubility (mole fraction) (in methanol, 313.15 K): 0.00125
solubility (mole fraction) (in methanol, 318.15 K): 0.00143
solubility (mole fraction) (in methanol, 323.15 K): 0.00159
solubility (mole fraction) (in methanol, 328.15 K): 0.00177
solubility (mole fraction) (in n-butanol, 288.15 K): 0.000171
solubility (mole fraction) (in n-butanol, 293.15 K): 0.000193
solubility (mole fraction) (in n-butanol, 298.15 K): 0.000221
solubility (mole fraction) (in n-butanol, 303.15 K): 0.000241
solubility (mole fraction) (in n-butanol, 308.15 K): 0.000274
solubility (mole fraction) (in n-butanol, 313.15 K): 0.000301
solubility (mole fraction) (in n-butanol, 318.15 K): 0.000344
solubility (mole fraction) (in n-butanol, 323.15 K): 0.000389
solubility (mole fraction) (in n-butanol, 328.15 K): 0.000439
solubility (mole fraction) (in n-hexanol, 288.15 K): 0.000139
solubility (mole fraction) (in n-hexanol, 293.15 K): 0.000153
solubility (mole fraction) (in n-hexanol, 298.15 K): 0.000168
solubility (mole fraction) (in n-hexanol, 303.15 K): 0.000187
solubility (mole fraction) (in n-hexanol, 308.15 K): 0.000213
solubility (mole fraction) (in n-hexanol, 313.15 K): 0.000251
solubility (mole fraction) (in n-hexanol, 318.15 K): 0.00029
solubility (mole fraction) (in n-hexanol, 323.15 K): 0.000337
solubility (mole fraction) (in n-hexanol, 328.15 K): 0.000378
solubility (mole fraction) (in n-octanol, 288.15 K): 0.000102
solubility (mole fraction) (in n-octanol, 293.15 K): 0.000108
solubility (mole fraction) (in n-octanol, 298.15 K): 0.00012
solubility (mole fraction) (in n-octanol, 303.15 K): 0.000133
solubility (mole fraction) (in n-octanol, 308.15 K): 0.000153
solubility (mole fraction) (in n-octanol, 313.15 K): 0.000188
solubility (mole fraction) (in n-octanol, 318.15 K): 0.00023
solubility (mole fraction) (in n-octanol, 323.15 K): 0.000266
solubility (mole fraction) (in n-octanol, 328.15 K): 0.000304
solubility (mole fraction) (in n-pentanol, 288.15 K): 0.000165
solubility (mole fraction) (in n-pentanol, 293.15 K): 0.000185
solubility (mole fraction) (in n-pentanol, 298.15 K): 0.000197
solubility (mole fraction) (in n-pentanol, 303.15 K): 0.000228
solubility (mole fraction) (in n-pentanol, 308.15 K): 0.000254
solubility (mole fraction) (in n-pentanol, 313.15 K): 0.000293
solubility (mole fraction) (in n-pentanol, 318.15 K): 0.00033
solubility (mole fraction) (in n-pentanol, 323.15 K): 0.000369
solubility (mole fraction) (in n-pentanol, 328.15 K): 0.000425
solubility (mole fraction) (in n-propanol, 288.15 K): 0.000218
solubility (mole fraction) (in n-propanol, 293.15 K): 0.000235
solubility (mole fraction) (in n-propanol, 298.15 K): 0.000273
solubility (mole fraction) (in n-propanol, 303.15 K): 0.000303
solubility (mole fraction) (in n-propanol, 308.15 K): 0.000329
solubility (mole fraction) (in n-propanol, 313.15 K): 0.000373
solubility (mole fraction) (in n-propanol, 318.15 K): 0.000433
solubility (mole fraction) (in n-propanol, 323.15 K): 0.000526
solubility (mole fraction) (in n-propanol, 328.15 K): 0.000588
solubility (mole fraction) (in sec-butanol, 288.15 K): 0.000128
solubility (mole fraction) (in sec-butanol, 293.15 K): 0.000137
solubility (mole fraction) (in sec-butanol, 298.15 K): 0.000149
solubility (mole fraction) (in sec-butanol, 303.15 K): 0.000165
solubility (mole fraction) (in sec-butanol, 308.15 K): 0.000191
solubility (mole fraction) (in sec-butanol, 313.15 K): 0.000234
solubility (mole fraction) (in sec-butanol, 318.15 K): 0.000279
solubility (mole fraction) (in sec-butanol, 323.15 K): 0.000321
solubility (mole fraction) (in sec-butanol, 328.15 K): 0.000367
solubility (mole fraction) (in tert-butanol, 303.15 K): 0.000269
solubility (mole fraction) (in tert-butanol, 308.15 K): 0.00036
solubility (mole fraction) (in tert-butanol, 313.15 K): 0.000461
solubility (mole fraction) (in tert-butanol, 318.15 K): 0.000706
solubility (mole fraction) (in tert-butanol, 323.15 K): 0.000848
solubility (mole fraction) (in tert-butanol, 328.15 K): 0.00118
solubility (mole fraction) (in water, 288.15 K): 0.000768
solubility (mole fraction) (in water, 293.15 K): 0.000899
solubility (mole fraction) (in water, 298.15 K): 0.00112
solubility (mole fraction) (in water, 303.15 K): 0.00145
solubility (mole fraction) (in water, 308.15 K): 0.00176
solubility (mole fraction) (in water, 313.15 K): 0.00215
solubility (mole fraction) (in water, 318.15 K): 0.00261
solubility (mole fraction) (in water, 323.15 K): 0.00337
solubility (mole fraction) (in water, 328.15 K): 0.00397
